Measurements published in the kinase profiling compilation of Christmann-Franck et al. (2016).

Key:
Assay in all cases: KINOMEscan competition binding
Conditions in all cases: compound 10.0 µM
ACVR1B (human) = ACVR1B (human) (UniProt P36896)
AURKA (human) = AURKA (human) (UniProt O14965)
BRSK1 (human) = BRSK1 (human) (UniProt Q8TDC3)
CAMK2G (human) = CAMK2G (human) (UniProt Q13555)
CAMKK1 (human) = CAMKK1 (human) (UniProt Q8N5S9)
CDC42BPB (human) = CDC42BPB (human) (UniProt Q9Y5S2)
CDC42BPG (human) = CDC42BPG (human) (UniProt Q6DT37)
CDK15 (human) = CDK15 (human) (UniProt Q96Q40)
CDK5 (human) = CDK5 (human) (UniProt Q00535)
CLK4 (human) = CLK4 (human) (UniProt Q9HAZ1)
CLK4 (human), sequence (Q9HAZ1 whole entry, looked up): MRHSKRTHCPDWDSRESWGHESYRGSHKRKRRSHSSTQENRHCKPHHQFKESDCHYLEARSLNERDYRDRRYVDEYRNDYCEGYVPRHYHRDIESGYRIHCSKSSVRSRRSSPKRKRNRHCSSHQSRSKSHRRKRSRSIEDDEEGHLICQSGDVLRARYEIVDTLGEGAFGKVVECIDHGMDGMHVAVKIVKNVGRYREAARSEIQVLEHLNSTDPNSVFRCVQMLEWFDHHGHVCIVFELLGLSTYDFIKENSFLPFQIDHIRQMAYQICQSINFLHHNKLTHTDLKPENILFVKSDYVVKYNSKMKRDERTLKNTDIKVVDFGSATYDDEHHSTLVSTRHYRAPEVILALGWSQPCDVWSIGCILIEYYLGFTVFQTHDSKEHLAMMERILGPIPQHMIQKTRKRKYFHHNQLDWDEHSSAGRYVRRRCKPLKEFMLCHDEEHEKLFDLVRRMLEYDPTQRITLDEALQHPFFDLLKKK

CSF1R (human) = CSF1R (human) (UniProt P07333)
CSF1R (human), sequence (P07333 whole entry, looked up): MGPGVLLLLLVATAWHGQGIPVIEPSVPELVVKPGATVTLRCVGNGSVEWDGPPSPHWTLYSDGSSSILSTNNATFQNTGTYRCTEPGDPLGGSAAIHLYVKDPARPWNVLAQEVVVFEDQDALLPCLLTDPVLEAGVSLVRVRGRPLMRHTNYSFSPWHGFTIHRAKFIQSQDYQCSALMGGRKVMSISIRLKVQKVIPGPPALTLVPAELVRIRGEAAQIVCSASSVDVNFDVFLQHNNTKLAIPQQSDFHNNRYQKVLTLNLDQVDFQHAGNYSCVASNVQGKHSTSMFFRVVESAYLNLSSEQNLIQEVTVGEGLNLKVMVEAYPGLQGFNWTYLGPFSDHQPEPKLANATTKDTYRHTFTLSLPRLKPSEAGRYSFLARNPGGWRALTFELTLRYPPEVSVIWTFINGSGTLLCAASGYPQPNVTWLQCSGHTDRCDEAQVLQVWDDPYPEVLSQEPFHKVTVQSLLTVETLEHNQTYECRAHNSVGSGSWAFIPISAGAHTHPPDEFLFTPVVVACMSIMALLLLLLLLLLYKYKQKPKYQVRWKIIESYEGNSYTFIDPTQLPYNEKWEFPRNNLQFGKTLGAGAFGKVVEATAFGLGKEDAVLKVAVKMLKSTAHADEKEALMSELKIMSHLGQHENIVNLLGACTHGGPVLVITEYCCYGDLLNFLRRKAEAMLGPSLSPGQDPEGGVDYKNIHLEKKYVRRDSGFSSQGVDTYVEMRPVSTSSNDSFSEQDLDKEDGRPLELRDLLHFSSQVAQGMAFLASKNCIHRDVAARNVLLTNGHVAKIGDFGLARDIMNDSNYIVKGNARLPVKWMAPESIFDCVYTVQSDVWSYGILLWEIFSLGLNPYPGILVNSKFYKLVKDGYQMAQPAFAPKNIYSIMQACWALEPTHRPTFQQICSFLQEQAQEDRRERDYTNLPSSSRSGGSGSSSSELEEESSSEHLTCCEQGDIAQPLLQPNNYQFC

CSNK1A1L (human) = CSNK1A1L (human) (UniProt Q8N752)
CSNK1A1L (human), sequence (Q8N752 whole entry, looked up): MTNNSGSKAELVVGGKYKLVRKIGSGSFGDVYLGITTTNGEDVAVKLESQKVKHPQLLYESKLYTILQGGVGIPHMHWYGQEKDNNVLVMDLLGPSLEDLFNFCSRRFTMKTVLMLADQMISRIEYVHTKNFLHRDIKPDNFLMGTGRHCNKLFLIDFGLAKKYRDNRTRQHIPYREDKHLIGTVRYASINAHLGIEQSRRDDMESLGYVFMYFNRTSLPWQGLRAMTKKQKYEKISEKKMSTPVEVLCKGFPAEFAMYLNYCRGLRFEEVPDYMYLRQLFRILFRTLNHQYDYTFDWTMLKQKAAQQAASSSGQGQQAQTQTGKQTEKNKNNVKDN

EIF2AK2 (human) = EIF2AK2 (human) (UniProt P19525)
EIF2AK2 (human), sequence (P19525 whole entry, looked up): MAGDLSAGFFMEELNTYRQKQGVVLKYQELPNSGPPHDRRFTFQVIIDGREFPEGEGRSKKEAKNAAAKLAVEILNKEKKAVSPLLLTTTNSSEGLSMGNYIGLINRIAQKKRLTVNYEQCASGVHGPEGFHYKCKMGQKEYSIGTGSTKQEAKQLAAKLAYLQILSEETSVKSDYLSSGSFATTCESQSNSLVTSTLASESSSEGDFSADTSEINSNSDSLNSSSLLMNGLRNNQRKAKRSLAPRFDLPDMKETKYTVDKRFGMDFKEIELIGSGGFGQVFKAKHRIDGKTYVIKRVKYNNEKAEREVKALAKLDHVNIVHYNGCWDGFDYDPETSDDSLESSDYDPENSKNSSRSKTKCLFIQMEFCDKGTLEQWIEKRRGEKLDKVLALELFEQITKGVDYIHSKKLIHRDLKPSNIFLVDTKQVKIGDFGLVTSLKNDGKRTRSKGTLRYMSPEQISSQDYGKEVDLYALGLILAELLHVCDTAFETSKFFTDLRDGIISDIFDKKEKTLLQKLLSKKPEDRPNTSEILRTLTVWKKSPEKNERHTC

EPHA1 (human) = EPHA1 (human) (UniProt P21709)
EPHA4 (human) = EPHA4 (human) (UniProt P54764)
EPHB4 (human) = EPHB4 (human) (UniProt P54760)
FGFR3 (human) = FGFR3 (human) (UniProt P22607)
FLT3 (human) = FLT3 (human) (UniProt P36888)
[1] = target: JAK3 JH1 catalytic (human) (UniProt P52333)
LCK (human) = LCK (human) (UniProt P06239)
LCK (human), sequence (P06239 whole entry, looked up): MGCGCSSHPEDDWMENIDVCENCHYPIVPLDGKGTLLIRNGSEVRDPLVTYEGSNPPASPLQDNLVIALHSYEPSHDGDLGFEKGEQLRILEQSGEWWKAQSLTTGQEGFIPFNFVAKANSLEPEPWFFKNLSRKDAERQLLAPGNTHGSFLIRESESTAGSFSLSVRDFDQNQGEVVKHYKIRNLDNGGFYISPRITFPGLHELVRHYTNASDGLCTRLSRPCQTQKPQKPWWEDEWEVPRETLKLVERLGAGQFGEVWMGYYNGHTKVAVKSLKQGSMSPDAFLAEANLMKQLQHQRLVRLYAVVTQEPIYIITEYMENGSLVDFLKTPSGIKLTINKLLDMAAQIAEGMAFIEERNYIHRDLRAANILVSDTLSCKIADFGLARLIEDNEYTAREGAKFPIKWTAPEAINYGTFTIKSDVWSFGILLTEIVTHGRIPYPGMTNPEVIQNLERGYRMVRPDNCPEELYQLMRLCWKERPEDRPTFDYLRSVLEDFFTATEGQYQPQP

MAP3K12 (human) = MAP3K12 (human) (UniProt Q12852)
MAP3K7 (human) = MAP3K7 (human) (UniProt O43318)
MAP4K2 (human) = MAP4K2 (human) (UniProt Q12851)
PAK6 (human) = PAK6 (human) (UniProt Q9NQU5)
PIK3CD (human) = PIK3CD (human) (UniProt O00329)
PLK4 (human) = PLK4 (human) (UniProt O00444)
PRKAA2 (human) = PRKAA2 (human) (UniProt P54646)
PRKACB (human) = PRKACB (human) (UniProt P22694)
RIPK2 (human) = RIPK2 (human) (UniProt O43353)
RIPK4 (human) = RIPK4 (human) (UniProt P57078)
RPS6KA1 KD2 (human) = RPS6KA1 KD2 (human) (UniProt Q15418)
SIK2 (human) = SIK2 (human) (UniProt Q9H0K1)
SRPK1 (human) = SRPK1 (human) (UniProt Q96SB4)
STK17A (human) = STK17A (human) (UniProt Q9UEE5)
[2] = target: TYK2 JH1 catalytic (human) (UniProt P29597)
[3] = target: TYK2 JH2 pseudokinase (human) (UniProt P29597)
ULK2 (human) = ULK2 (human) (UniProt Q8IYT8)
ALK (human) = ALK (human) (UniProt Q9UM73)
ALK (human), sequence (Q9UM73 whole entry, looked up): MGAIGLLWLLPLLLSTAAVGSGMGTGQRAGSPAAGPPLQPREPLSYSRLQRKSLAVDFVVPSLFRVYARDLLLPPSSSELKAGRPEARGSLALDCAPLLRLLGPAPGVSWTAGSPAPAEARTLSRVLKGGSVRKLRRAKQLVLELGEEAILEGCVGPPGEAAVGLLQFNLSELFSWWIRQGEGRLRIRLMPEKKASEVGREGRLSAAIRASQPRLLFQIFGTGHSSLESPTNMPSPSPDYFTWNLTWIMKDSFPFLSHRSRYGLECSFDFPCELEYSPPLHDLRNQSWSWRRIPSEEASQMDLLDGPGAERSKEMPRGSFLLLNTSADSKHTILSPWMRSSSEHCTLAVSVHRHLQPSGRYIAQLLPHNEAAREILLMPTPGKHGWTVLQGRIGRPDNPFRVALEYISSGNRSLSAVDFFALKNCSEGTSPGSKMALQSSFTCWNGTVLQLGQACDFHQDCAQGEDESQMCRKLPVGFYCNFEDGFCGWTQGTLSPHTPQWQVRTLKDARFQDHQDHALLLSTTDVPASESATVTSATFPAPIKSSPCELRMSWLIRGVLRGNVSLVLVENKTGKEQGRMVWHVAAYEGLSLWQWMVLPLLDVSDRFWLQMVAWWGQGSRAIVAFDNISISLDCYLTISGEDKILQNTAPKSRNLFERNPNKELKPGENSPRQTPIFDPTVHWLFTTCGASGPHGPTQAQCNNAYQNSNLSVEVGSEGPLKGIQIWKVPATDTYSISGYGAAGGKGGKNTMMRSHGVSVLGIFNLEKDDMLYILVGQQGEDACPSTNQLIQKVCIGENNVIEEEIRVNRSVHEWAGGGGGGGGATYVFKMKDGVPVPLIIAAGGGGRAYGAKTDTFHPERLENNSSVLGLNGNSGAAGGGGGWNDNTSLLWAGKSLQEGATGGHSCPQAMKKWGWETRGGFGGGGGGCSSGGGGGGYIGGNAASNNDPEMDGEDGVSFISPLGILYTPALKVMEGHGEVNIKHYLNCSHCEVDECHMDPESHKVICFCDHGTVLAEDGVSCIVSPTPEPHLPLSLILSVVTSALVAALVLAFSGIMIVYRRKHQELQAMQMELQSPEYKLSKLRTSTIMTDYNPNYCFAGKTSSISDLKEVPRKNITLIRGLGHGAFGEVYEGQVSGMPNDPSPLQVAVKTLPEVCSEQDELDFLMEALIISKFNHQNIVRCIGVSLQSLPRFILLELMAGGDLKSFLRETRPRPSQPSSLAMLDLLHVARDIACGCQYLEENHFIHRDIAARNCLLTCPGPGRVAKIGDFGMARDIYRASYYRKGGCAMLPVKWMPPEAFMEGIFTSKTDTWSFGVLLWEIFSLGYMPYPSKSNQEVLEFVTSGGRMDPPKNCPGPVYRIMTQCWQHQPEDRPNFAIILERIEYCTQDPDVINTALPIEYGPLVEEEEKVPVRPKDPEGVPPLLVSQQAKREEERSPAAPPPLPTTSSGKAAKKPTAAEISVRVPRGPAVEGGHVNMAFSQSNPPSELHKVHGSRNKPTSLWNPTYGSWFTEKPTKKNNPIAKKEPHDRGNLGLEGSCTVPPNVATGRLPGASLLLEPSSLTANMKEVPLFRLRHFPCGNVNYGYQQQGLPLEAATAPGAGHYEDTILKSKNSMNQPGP

CAMK2B (human) = CAMK2B (human) (UniProt Q13554)
KDR (human) = KDR (human) (UniProt P35968)

ACVR1B (human), sequence (P36896 whole entry, looked up): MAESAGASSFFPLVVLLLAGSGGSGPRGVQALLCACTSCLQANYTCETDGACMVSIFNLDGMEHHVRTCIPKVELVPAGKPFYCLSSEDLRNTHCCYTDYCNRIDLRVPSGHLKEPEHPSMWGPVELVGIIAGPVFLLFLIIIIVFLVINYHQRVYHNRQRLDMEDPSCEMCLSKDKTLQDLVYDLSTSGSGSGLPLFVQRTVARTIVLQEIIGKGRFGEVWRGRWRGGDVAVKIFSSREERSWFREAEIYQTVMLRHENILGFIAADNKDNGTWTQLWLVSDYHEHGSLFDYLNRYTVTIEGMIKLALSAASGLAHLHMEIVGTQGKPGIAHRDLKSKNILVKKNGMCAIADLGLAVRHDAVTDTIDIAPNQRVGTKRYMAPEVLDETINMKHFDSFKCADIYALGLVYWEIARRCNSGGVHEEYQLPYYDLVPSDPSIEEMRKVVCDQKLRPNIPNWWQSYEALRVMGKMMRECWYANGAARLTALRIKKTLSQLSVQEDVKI

| Compound | kinase still bound, per cent of control (ACVR1B (human)) | kinase still bound, per cent of control (AURKA (human)) | kinase still bound, per cent of control (BRSK1 (human)) | kinase still bound, per cent of control (CAMK2G (human)) | kinase still bound, per cent of control (CAMKK1 (human)) | kinase still bound, per cent of control (CDC42BPB (human)) | kinase still bound, per cent of control (CDC42BPG (human)) | kinase still bound, per cent of control (CDK15 (human)) | kinase still bound, per cent of control (CDK5 (human)) | kinase still bound, per cent of control (CLK4 (human)) | kinase still bound, per cent of control (CSF1R (human)) | kinase still bound, per cent of control (CSNK1A1L (human)) | kinase still bound, per cent of control (EIF2AK2 (human)) | kinase still bound, per cent of control (EPHA1 (human)) | kinase still bound, per cent of control (EPHA4 (human)) | kinase still bound, per cent of control (EPHB4 (human)) | kinase still bound, per cent of control (FGFR3 (human)) | kinase still bound, per cent of control (FLT3 (human)) | kinase still bound, per cent of control (LCK (human)) | kinase still bound, per cent of control (MAP3K12 (human)) | also measured |
| --- | --- | --- | --- | --- | --- | --- | --- | --- | --- | --- | --- | --- | --- | --- | --- | --- | --- | --- | --- | --- | --- |
| CC[C@@H]1C(=O)N(C)c2cnc(Nc3ccc(C(=O)NC4CCN(C)CC4)cc3OC)nc2N1C1CCCC1 | 100% | 100% | 100% | 100% | 1.9% | 100% | 100% | 100% | 100% | 100% | 100% | 100% | 100% | 100% | 100% | 100% | 100% | 100% | 100% | 100% | kinase still bound, per cent of control [1]: 100%; kinase still bound, per cent of control (MAP3K7 (human)): 100%; kinase still bound, per cent of control (MAP4K2 (human)): 100%; kinase still bound, per cent of control (PAK6 (human)): 100%; kinase still bound, per cent of control (PIK3CD (human)): 100%; kinase still bound, per cent of control (PLK4 (human)): 100%; kinase still bound, per cent of control (PRKAA2 (human)): 100%; kinase still bound, per cent of control (PRKACB (human)): 100%; kinase still bound, per cent of control (RIPK2 (human)): 100%; kinase still bound, per cent of control (RIPK4 (human)): 100%; kinase still bound, per cent of control (RPS6KA1 KD2 (human)): 21%; kinase still bound, per cent of control (SIK2 (human)): 100%; kinase still bound, per cent of control (SRPK1 (human)): 100%; kinase still bound, per cent of control (STK17A (human)): 100%; kinase still bound, per cent of control [2]: 100%; kinase still bound, per cent of control [3]: 100%; kinase still bound, per cent of control (ULK2 (human)): 100% |
| CCOc1cc2ncc(C#N)c(Nc3ccc(OCc4ccccn4)c(Cl)c3)c2cc1NC(=O)/C=C/CN(C)C | 100% | 87% | 95% | 95% | 100% | 100% | 100% | 98% | 100% | 100% | 68% | 98% | 100% | 100% | 96% | 91% | 98% | 100% | 3.7% | 36% | kinase still bound, per cent of control (ALK (human)): 100%; kinase still bound, per cent of control (CAMK2B (human)): 100%; kinase still bound, per cent of control [1]: 100%; kinase still bound, per cent of control (KDR (human)): 94%; kinase still bound, per cent of control (MAP3K7 (human)): 90%; kinase still bound, per cent of control (MAP4K2 (human)): 5.2%; kinase still bound, per cent of control (PAK6 (human)): 74%; kinase still bound, per cent of control (PLK4 (human)): 82%; kinase still bound, per cent of control (PRKAA2 (human)): 80%; kinase still bound, per cent of control (PRKACB (human)): 100%; kinase still bound, per cent of control (RIPK2 (human)): 98%; kinase still bound, per cent of control (RIPK4 (human)): 77%; kinase still bound, per cent of control (RPS6KA1 KD2 (human)): 85%; kinase still bound, per cent of control (SIK2 (human)): 58%; kinase still bound, per cent of control (SRPK1 (human)): 100%; kinase still bound, per cent of control (STK17A (human)): 37%; kinase still bound, per cent of control [2]: 100%; kinase still bound, per cent of control [3]: 99%; kinase still bound, per cent of control (ULK2 (human)): 100% |
| Cc1cc([C@@H](C)Nc2ccccc2C(=O)O)c2nc(N3CCOCC3)cc(=O)n2c1 | 93% | 100% | 99% | 98% | 98% | 100% | 100% | 100% | 100% | 68% | 94% | 100% | 99% | 100% | 93% | 96% | 83% | 13% | 97% | 85% | kinase still bound, per cent of control (ALK (human)): 100%; kinase still bound, per cent of control (CAMK2B (human)): 83%; kinase still bound, per cent of control [1]: 94%; kinase still bound, per cent of control (KDR (human)): 100%; kinase still bound, per cent of control (MAP3K7 (human)): 89%; kinase still bound, per cent of control (MAP4K2 (human)): 56%; kinase still bound, per cent of control (PAK6 (human)): 93%; kinase still bound, per cent of control (PLK4 (human)): 100%; kinase still bound, per cent of control (PRKAA2 (human)): 88%; kinase still bound, per cent of control (PRKACB (human)): 100%; kinase still bound, per cent of control (RIPK2 (human)): 94%; kinase still bound, per cent of control (RIPK4 (human)): 99%; kinase still bound, per cent of control (RPS6KA1 KD2 (human)): 84%; kinase still bound, per cent of control (SIK2 (human)): 100%; kinase still bound, per cent of control (SRPK1 (human)): 100%; kinase still bound, per cent of control (STK17A (human)): 98%; kinase still bound, per cent of control [2]: 82%; kinase still bound, per cent of control [3]: 100%; kinase still bound, per cent of control (ULK2 (human)): 100% |
| O=C(O)c1ccc(Nc2ncc3c(n2)-c2ccc(Cl)cc2C(c2c(F)cccc2F)=NC3)cc1 | 94% | 0.5% | 100% | 98% | 89% | 69% | 92% | 100% | 100% | 100% | 38% | 97% | 100% | 15% | 11% | 11% | 9% | 80% | 1.6% | 100% | kinase still bound, per cent of control (ALK (human)): 48%; kinase still bound, per cent of control (CAMK2B (human)): 71%; kinase still bound, per cent of control (MAP3K7 (human)): 80%; kinase still bound, per cent of control (MAP4K2 (human)): 88%; kinase still bound, per cent of control (PAK6 (human)): 79%; kinase still bound, per cent of control (PIK3CD (human)): 88%; kinase still bound, per cent of control (PLK4 (human)): 14%; kinase still bound, per cent of control (PRKAA2 (human)): 67%; kinase still bound, per cent of control (PRKACB (human)): 58%; kinase still bound, per cent of control (RIPK2 (human)): 97%; kinase still bound, per cent of control (RIPK4 (human)): 100%; kinase still bound, per cent of control (SIK2 (human)): 49%; kinase still bound, per cent of control (SRPK1 (human)): 100%; kinase still bound, per cent of control (STK17A (human)): 1.9%; kinase still bound, per cent of control [2]: 100%; kinase still bound, per cent of control [3]: 100%; kinase still bound, per cent of control (ULK2 (human)): 100% |
